Read-outs that look alike come from different tables or passages of the source. Marks after values point to notes of the source that are not given here.
Legend:
Plasma protein binding = format: in vitro ADME; conditions: monkeys
SRC = SRC (Homo sapiens, UniProt P12931); experiment: Tyrosine kinase inhibition; format: biochemical
EGFR = EGFR (Homo sapiens, UniProt P00533); experiment: Tyrosine kinase inhibition; format: biochemical
Rat plasma kinetics = format: in vivo
CHL = CHL test; format: cell-based
[1] = Cynomolgus monkey plasma kinetics; format: in vivo
[2] = tested on: human melanoma A375 tumors; experiment: A375 tumors in nude mice; format: in vivo
[3] = tested on: EGFR signaling in tumor tissue; experiment: PK/PD in plasma and tumor tissue of tumor-bearing mice; format: in vivo; conditions: after a single dose, 25 and 50 mg/kg
BTK = BTK (Homo sapiens, UniProt Q06187); experiment: Tyrosine kinase inhibition; format: biochemical
KYSE-150 cells = experiment: Tumor cell proliferation in vitro; format: cell-based, human
RET = RET (Homo sapiens, UniProt P07949); experiment: Tyrosine kinase inhibition; format: biochemical
LCK = LCK (Homo sapiens, UniProt P06239); experiment: Tyrosine kinase inhibition; format: biochemical
A498 cells = experiment: Tumor cell proliferation in vitro; format: cell-based
TT cells = experiment: Tumor cell proliferation in vitro; format: cell-based, human
matrigel angiogenesis = format: in vivo, mouse; conditions: induced by VEGF and FGF
[4] = tested on: human esophageal cancer ECA-109 tumors; experiment: ECA-109 tumors in nude mice; format: in vivo
[5] = tested on: human thyroid cancer TT tumors; experiment: TT tumors in nude mice; format: in vivo; conditions: for RTV ±SD / T/C / Terminal Tumor Volume: TT tumors
From the text: (§1) was higher than that of vandetanib .
as §1
Table S15. Efficacy of HA121-28 on human thyroid cancer TT tumors

TrkA = TrkA (Homo sapiens, UniProt P04629); experiment: Tyrosine kinase inhibition; format: biochemical
TrkA, sequence (P04629 33-796): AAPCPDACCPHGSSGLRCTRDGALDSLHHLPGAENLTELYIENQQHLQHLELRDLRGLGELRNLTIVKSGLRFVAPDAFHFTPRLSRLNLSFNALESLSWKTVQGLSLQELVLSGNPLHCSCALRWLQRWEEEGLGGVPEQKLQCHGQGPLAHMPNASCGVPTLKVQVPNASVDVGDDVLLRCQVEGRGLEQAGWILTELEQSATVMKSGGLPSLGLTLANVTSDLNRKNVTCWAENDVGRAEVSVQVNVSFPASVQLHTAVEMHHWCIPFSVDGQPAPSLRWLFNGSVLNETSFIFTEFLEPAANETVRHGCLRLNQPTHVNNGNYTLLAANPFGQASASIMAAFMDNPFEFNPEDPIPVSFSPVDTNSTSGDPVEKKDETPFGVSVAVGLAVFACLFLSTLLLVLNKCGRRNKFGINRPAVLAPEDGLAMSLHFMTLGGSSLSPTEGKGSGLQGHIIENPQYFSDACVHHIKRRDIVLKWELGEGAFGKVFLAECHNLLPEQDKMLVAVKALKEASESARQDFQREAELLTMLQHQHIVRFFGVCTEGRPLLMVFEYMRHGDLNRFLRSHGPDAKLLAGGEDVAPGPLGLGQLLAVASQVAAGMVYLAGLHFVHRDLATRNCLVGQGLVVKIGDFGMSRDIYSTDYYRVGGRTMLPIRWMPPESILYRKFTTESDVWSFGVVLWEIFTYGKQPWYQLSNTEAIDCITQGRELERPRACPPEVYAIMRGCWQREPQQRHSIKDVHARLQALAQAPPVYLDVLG

SRC, sequence (P12931 whole entry): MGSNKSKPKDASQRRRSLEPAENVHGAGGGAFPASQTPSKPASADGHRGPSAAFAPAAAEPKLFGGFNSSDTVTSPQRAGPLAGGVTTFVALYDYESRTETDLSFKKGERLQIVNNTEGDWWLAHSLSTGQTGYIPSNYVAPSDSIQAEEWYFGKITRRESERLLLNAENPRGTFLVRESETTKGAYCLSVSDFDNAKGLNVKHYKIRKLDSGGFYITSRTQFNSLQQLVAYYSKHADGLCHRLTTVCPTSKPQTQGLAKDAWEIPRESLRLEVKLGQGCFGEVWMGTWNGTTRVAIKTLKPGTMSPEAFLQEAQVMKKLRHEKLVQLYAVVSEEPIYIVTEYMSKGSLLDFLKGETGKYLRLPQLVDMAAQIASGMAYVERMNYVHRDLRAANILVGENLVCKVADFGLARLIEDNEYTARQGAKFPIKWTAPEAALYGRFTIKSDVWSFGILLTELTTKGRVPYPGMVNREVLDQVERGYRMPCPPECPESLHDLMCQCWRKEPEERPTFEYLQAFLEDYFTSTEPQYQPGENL
RET, sequence (P07949 29-1114): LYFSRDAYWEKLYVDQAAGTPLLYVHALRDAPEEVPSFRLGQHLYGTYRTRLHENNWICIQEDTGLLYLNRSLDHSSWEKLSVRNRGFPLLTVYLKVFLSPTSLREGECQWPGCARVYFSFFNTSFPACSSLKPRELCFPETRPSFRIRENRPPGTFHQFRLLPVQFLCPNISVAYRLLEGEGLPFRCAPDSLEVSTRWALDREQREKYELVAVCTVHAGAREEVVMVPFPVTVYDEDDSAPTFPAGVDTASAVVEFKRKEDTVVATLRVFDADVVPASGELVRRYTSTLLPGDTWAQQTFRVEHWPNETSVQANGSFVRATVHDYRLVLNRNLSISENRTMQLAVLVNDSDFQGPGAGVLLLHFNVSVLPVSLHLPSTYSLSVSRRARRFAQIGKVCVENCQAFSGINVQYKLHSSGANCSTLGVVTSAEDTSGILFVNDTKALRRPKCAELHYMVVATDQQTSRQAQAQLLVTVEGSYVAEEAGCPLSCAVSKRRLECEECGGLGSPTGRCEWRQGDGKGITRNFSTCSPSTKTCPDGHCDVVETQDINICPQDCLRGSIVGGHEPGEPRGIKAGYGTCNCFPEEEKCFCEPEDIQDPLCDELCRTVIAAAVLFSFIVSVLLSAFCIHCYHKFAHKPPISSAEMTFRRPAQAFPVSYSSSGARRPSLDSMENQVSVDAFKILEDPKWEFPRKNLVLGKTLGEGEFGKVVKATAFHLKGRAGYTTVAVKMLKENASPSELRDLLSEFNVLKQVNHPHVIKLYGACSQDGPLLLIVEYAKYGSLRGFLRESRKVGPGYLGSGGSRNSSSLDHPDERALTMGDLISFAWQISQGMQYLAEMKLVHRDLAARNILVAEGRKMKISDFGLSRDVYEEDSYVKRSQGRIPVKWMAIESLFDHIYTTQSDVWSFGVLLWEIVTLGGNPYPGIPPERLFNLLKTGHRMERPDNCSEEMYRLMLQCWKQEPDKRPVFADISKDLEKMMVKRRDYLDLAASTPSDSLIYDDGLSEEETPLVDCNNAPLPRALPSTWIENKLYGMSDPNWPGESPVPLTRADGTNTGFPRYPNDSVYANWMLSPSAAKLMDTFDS
BTK, sequence (Q06187 whole entry): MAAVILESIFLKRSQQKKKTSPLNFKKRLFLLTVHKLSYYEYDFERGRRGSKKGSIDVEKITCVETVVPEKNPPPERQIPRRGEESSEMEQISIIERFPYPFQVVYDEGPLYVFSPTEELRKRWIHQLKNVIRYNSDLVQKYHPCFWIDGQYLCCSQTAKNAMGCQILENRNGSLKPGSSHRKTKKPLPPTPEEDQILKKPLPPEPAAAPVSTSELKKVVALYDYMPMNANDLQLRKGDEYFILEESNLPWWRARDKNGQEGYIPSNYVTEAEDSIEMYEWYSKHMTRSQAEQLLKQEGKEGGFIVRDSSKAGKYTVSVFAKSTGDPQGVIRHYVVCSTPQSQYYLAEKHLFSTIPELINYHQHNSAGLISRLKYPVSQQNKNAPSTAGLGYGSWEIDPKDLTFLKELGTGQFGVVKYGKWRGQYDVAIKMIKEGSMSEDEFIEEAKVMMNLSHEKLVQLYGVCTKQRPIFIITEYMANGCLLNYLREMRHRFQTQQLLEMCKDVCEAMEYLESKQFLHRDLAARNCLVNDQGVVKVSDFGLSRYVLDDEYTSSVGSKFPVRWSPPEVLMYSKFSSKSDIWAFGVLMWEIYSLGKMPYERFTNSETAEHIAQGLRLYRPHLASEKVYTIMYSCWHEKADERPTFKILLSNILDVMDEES
EGFR, sequence (P00533 25-1210): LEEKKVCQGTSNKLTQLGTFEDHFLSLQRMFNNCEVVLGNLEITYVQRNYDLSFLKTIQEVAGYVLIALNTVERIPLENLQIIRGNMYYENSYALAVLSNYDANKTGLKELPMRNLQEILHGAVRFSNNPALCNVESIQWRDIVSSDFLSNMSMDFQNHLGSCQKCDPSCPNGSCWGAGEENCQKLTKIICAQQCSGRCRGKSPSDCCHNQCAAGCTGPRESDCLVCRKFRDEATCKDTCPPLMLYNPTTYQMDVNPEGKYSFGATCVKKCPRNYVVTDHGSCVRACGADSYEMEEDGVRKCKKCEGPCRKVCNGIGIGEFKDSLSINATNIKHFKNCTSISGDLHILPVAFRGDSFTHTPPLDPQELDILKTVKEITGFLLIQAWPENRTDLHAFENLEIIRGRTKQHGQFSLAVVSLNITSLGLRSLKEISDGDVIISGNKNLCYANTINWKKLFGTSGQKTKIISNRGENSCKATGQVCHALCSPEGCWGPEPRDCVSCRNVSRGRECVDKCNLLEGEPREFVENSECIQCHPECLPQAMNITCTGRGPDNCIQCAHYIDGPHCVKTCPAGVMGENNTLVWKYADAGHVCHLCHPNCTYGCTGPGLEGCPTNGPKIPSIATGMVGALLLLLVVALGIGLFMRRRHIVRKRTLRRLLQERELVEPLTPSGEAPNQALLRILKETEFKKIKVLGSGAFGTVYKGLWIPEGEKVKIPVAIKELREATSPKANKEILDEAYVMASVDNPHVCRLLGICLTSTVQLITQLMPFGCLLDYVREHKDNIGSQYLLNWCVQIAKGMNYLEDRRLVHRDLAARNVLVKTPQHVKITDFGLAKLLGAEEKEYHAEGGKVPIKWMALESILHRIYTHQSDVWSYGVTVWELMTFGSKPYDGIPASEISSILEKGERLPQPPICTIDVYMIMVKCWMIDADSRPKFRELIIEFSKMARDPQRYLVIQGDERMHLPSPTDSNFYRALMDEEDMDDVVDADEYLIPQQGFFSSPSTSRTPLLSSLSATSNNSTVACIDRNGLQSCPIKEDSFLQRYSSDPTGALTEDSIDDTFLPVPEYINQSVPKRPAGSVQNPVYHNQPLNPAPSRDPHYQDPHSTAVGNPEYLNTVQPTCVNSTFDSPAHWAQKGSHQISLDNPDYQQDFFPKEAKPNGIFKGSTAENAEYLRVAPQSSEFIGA
LCK, sequence (P06239 whole entry): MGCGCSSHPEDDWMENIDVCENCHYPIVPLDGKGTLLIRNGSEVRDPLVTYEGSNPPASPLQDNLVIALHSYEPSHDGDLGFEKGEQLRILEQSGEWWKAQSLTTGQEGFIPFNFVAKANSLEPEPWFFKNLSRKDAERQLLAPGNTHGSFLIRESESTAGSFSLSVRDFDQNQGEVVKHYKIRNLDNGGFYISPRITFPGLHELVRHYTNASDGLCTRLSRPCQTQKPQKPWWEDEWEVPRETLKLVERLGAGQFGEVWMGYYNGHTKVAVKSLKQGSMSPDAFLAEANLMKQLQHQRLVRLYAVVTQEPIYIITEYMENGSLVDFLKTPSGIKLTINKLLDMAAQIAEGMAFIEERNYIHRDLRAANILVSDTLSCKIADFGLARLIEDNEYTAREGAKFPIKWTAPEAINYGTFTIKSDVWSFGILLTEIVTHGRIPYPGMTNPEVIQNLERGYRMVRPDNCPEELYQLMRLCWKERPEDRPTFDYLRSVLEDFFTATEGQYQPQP

COc1cc2c(Nc3ccc(Br)cc3F)ncnc2cc1OCCCCN(C)C.Cl.Cl [HA121-28, N-(4-bromo-2-fluorophenyl)-7-(4-(dimethylamino)butoxy)-6-methoxy quinazolin-4-amine dihydrochloride]
plasma protein binding rate (Plasma protein binding): 92.5±0.331% | IC50 (SRC): 65.8 nM | IC50 (EGFR): 46.6 nM | AUC0-96h (Rat plasma kinetics; 7 consecutive days (10 mg/kg)): 8420 ± 1720 ng·h/mL | AUC0-∞ (Rat plasma kinetics; 7 consecutive days (10 mg/kg)): 9690 ± 2310 ng·h/mL | CL (Rat plasma kinetics; 7 consecutive days (10 mg/kg)): 39.3 ± 6.53 mL/min/kg | Cmax (Rat plasma kinetics; 7 consecutive days (10 mg/kg)): 284 ± 56.8 ng/mL | MRT0-∞ (Rat plasma kinetics; 7 consecutive days (10 mg/kg)): 40.0 ± 7.30 h | Tmax (Rat plasma kinetics; 7 consecutive days (10 mg/kg)): 6.00 ± 0.00 h | Vd (Rat plasma kinetics; 7 consecutive days (10 mg/kg)): 110 ± 24.9 L/kg | t1/2 (Rat plasma kinetics; 7 consecutive days (10 mg/kg)): 32.9 ± 7.77 h | AUC0-96h (Rat plasma kinetics; high dose (20 mg/kg)): 6460 ± 849 ng·h/mL | AUC0-∞ (Rat plasma kinetics; high dose (20 mg/kg)): 6760 ± 1040 ng·h/mL | CL (Rat plasma kinetics; high dose (20 mg/kg)): 50.3 ± 8.05 mL/min/kg | Cmax (Rat plasma kinetics; high dose (20 mg/kg)): 288 ± 38.5 ng/mL | MRT0-96h (Rat plasma kinetics; high dose (20 mg/kg)): 22.8 ± 2.85 h | MRT0-∞ (Rat plasma kinetics; high dose (20 mg/kg)): 27.3 ± 5.24 h | Tmax (Rat plasma kinetics; high dose (20 mg/kg)): 5.00 ± 1.55 h | Vd (Rat plasma kinetics; high dose (20 mg/kg)): 96.8 ± 8.19 L/kg | t1/2 (Rat plasma kinetics; high dose (20 mg/kg)): 22.8 ± 5.00 h | AUC0-96h (Rat plasma kinetics; intravenous (5 mg/kg)): 1440 ± 214 ng·h/mL | AUC0-∞ (Rat plasma kinetics; intravenous (5 mg/kg)): 1470 ± 232 ng·h/mL | C5min (Rat plasma kinetics; intravenous (5 mg/kg)): 246 ± 43.1 ng/mL | CL (Rat plasma kinetics; intravenous (5 mg/kg)): 57.8 ± 8.8 mL/min/kg | MRT0-96h (Rat plasma kinetics; intravenous (5 mg/kg)): 17.2 ± 1.68 h | MRT0-∞ (Rat plasma kinetics; intravenous (5 mg/kg)): 19.0 ± 2.82 h | Vd (Rat plasma kinetics; intravenous (5 mg/kg)): 90.9 ± 12.3 L/kg | t1/2 (Rat plasma kinetics; intravenous (5 mg/kg)): 18.5 ± 3.86 h | AUC0-96h (Rat plasma kinetics; low dose (5 mg/kg)): 1350 ± 419 ng·h/mL | AUC0-∞ (Rat plasma kinetics; low dose (5 mg/kg)): 1390 ± 438 ng·h/mL | CL (Rat plasma kinetics; low dose (5 mg/kg)): 65.2 ± 19.8 mL/min/kg | Cmax (Rat plasma kinetics; low dose (5 mg/kg)): 58.7 ± 12.7 ng/mL | MRT0-96h (Rat plasma kinetics; low dose (5 mg/kg)): 19.2 ± 2.41 h | MRT0-∞ (Rat plasma kinetics; low dose (5 mg/kg)): 21.5 ± 3.23 h | Tmax (Rat plasma kinetics; low dose (5 mg/kg)): 5.00 ± 1.10 h | Vd (Rat plasma kinetics; low dose (5 mg/kg)): 93.5 ± 15.9 L/kg | t1/2 (Rat plasma kinetics; low dose (5 mg/kg)): 17.4 ± 3.52 h | AUC0-96h (Rat plasma kinetics; medium dose (10 mg/kg)): 3200 ± 629 ng·h/mL | AUC0-∞ (Rat plasma kinetics; medium dose (10 mg/kg)): 3300 ± 696 ng·h/mL | CL (Rat plasma kinetics; medium dose (10 mg/kg)): 52.5 ± 11.6 mL/min/kg | Cmax (Rat plasma kinetics; medium dose (10 mg/kg)): 147 ± 26.6 ng/mL | MRT0-96h (Rat plasma kinetics; medium dose (10 mg/kg)): 21.8 ± 2.80 h | MRT0-∞ (Rat plasma kinetics; medium dose (10 mg/kg)): 24.7 ± 4.71 h | Tmax (Rat plasma kinetics; medium dose (10 mg/kg)): 4.50 ± 1.22 h | Vd (Rat plasma kinetics; medium dose (10 mg/kg)): 82.8 ± 9.31 L/kg | t1/2 (Rat plasma kinetics; medium dose (10 mg/kg)): 18.8 ± 3.60 h | F (oral bioavailability) (Rat plasma kinetics; rat): 93.8% | genetic toxicity (CHL): negative | AUC0-72h ([1]; gavage (5 mg/kg)): 1680 ± 766 ng·h/mL | AUC0-∞ ([1]; gavage (5 mg/kg)): 1920 ± 992 ng·h/mL | CL ([1]; gavage (5 mg/kg)): 50.8 ± 20.3 mL/min/kg | Cmax ([1]; gavage (5 mg/kg)): 75.9 ± 27.8 ng/mL | MRT0-72h ([1]; gavage (5 mg/kg)): 20.9 ± 2.67 h | MRT0-∞ ([1]; gavage (5 mg/kg)): 30.5 ± 8.00 h | Tmax ([1]; gavage (5 mg/kg)): 6.75 ± 1.50 h | Vd ([1]; gavage (5 mg/kg)): 100 ± 24.1 L/kg | t1/2 ([1]; gavage (5 mg/kg)): 24.4 ± 5.68 h | AUC0-72h ([1]; intravenous (5 mg/kg)): 2610 ± 1340 ng·h/mL | AUC0-∞ ([1]; intravenous (5 mg/kg)): 3000 ± 1880 ng·h/mL | C6min ([1]; intravenous (5 mg/kg)): 314 ± 61.4 ng/mL | CL ([1]; intravenous (5 mg/kg)): 34.2 ± 13.6 mL/min/kg | MRT0-72h ([1]; intravenous (5 mg/kg)): 18.8 ± 3.77 h | MRT0-∞ ([1]; intravenous (5 mg/kg)): 27.5 ± 11.4 h | Vd ([1]; intravenous (5 mg/kg)): 58.7 ± 15.7 L/kg | t1/2 ([1]; intravenous (5 mg/kg)): 22.3 ± 8.39 h | F (oral bioavailability) ([1]; monkey): 64.4% | RTV ±SD ([2]; 12.5 mg/kg): 11.2±4.7 | T/C ([2]; 12.5 mg/kg): 54.6% | Terminal Tumor Volume ([2]; 12.5 mg/kg): 1860.7±1044.5 mm^3 | RTV ±SD ([2]; 25 mg/kg): 8.7±5.9 | T/C ([2]; 25 mg/kg): 42.6% | Terminal Tumor Volume ([2]; 25 mg/kg): 1329.3±1001.3* mm^3 | RTV ±SD ([2]; 50 mg/kg): 5.7±3.1 | T/C ([2]; 50 mg/kg): 27.7% | Terminal Tumor Volume ([2]; 50 mg/kg): 879.7±405.8** mm^3 | onset of inhibition of EGFR signaling pathway [3]: 2 h | IC50 (BTK): 446 nM | IC50 (KYSE-150 cells; KYSE-150, metabolite comparison, read-out: IC50): 1080 nM | IC50 (KYSE-150 cells; KYSE-150, read-out: IC50): 1080 ± 220 nM | IC50 (KYSE-150 cells; KYSE-150, read-out: IC50, proliferation): 1080 ± 220 nM | IC50 (RET): 8.72 nM | IC50 (LCK): 14 nM | IC50 (A498 cells): 858 ± 17.9 nM | IC50 (TT cells): 3830 ± 91.5 nM | mouse matrigel angiogenesis (matrigel angiogenesis): able to inhibit | RTV ±SD ([4]; 12.5 mg/kg): 7.0±2.8 | T/C ([4]; 12.5 mg/kg): 68.6% | Terminal Tumor Volume ([4]; 12.5 mg/kg): 1,684.6±1,034.3 mm^3 | RTV ±SD ([4]; 25 mg/kg): 3.1±1.6 | T/C ([4]; 25 mg/kg): 29.8% | Terminal Tumor Volume ([4]; 25 mg/kg): 693.5±538.6*^▲ mm^3 | RTV ±SD ([4]; 50 mg/kg): 2.2±0.4 | T/C ([4]; 50 mg/kg): 21.6% | Terminal Tumor Volume ([4]; 50 mg/kg): 491.8±77.4** mm^3 | in vivo anti-tumor effect ([5]; 50 mg/kg): tumor shrinkage was observed | RTV ±SD ([5]; 25 mg/kg): 2.1±0.6 | T/C ([5]; 25 mg/kg): 33.8% | Terminal Tumor Volume ([5]; 25 mg/kg): 307.4±69.5** mm^3 | RTV ±SD ([5]; 50 mg/kg): 0.8±0.2 | T/C ([5]; 50 mg/kg): 13.6% | Terminal Tumor Volume ([5]; 50 mg/kg): 131.9±66.5** mm^3 | RTV ±SD ([5]; 75 mg/kg): 0.5±0.2 | T/C ([5]; 75 mg/kg): 8.7% | Terminal Tumor Volume ([5]; 75 mg/kg): 86.9±40.0** mm^3 | IC50 (TrkA): 1360 nM

From article PMC11868595, “Safety, pharmacokinetics and efficacy of HA121-28 in patients with advanced solid tumors and RET fusion-positive non-small-cell lung cancer: a multicenter, open-label, single-arm phase 1/2 trial” (Signal Transduction and Targeted Therapy, 2025)
